Data on two substances can be found in patent US10669301B2, “Phosphoramidite building blocks for sugar-conjugated oligonucleotides” (AM CHEMICALS LLC, priority 2013, dated 2020).

The nature of the series: Hydrolysis of phosphoramidite building blocks in 95% aqueous MeCN followed by reverse-phase HPLC. It is filed as physicochemical. To be noted: 95% aqueous MeCN at 25° C. The protocol: The hydrolysis of phosphoramidite building blocks 12 and 16 in 95% aqueous MeCN at 25° C. was followed by reverse-phase HPLC.

“5′-O-(4,4′-Dimethoxytrityl)-3′-O—[(N,N-diisopropylamino)[2-[[2-[(2,3,4,6-tetra-O-acetyl-β-D-glucopyranosyl)oxy]ethyl]oxy]ethoxy]phosphinyl]thymidine [Compound 16]” yielded a half-life of hydrolysis of 33 h.
In turn, “5′-O-(4,4′-Dimethoxytrityl)-3′-O—[(N,N-diisopropylamino)[3-[(2,3,4,6-tetra-O-acetyl-β-D-glucopyranosyl)oxy]propyl]phosphino]thymidine [Compound 12]” registered a half-life of hydrolysis of 48 h.
